Series [1] is described as follows: Cytotoxicity against HUVEC assessed as cell viability at 64 ug/ml incubated for 24 hrs by CCK-8 assay. The format is toxicity, cell-based. As to conditions: human, HUVEC cells, at 64 µg/mL, read-out: Activity.
Series [2] in a line: Induction of hemolysis in rabbit RBC at 16 ug/ml incubated for 1 hr. The format is toxicity, cell-based, Oryctolagus cuniculus, Erythrocyte. As to conditions: red blood cells, at 16 µg/mL, read-out: Activity.
Series [3] is described as follows: Induction of hemolysis in rabbit RBC at 32 ug/ml incubated for 1 hr. It counts as toxicity, cell-based, Oryctolagus cuniculus, Erythrocyte. The settings on record: red blood cells, at 32 µg/mL, read-out: Activity.
Series [4] can be described thus: Induction of hemolysis in rabbit RBC at 64 ug/ml incubated for 1 hr. The format is toxicity, cell-based, Oryctolagus cuniculus, Erythrocyte. The settings on record: red blood cells, at 64 µg/mL, read-out: Activity.
Series [5] can be described thus: in vitro. As to conditions: human, Caco-2 cells; at 64 µg/mL.

Turning to `C[C@@H]1[C@H](O)[C@@H](C)/C=C/C=C/C=C/C=C/C=C/C=C/C=C/[C@H](O[C@@H]2O[C@H](C)[C@@H](O)[C@H](N)[C@@H]2O)C[C@@H]2O[C@](O)(C[C@@H](O)C[C@@H](O)[C@H](O)CC[C@@H](O)C[C@@H](O)CC(=O)O[C@H]1C)C[C@H](O)[C@H]2C(=O)O` [AMPHOTERICIN B], the values for the viability at 24 h, 64 ug/ml in series [1] and in series [5] were 78.2% and 63.3%, respectively. For the same molecule, the hemolysis at 1 h, 16 ug/ml in series [2] worked out at 24.7%. Also, the hemolysis at 1 h, 32 ug/ml in series [3] amounted to 65.2%. Besides, the hemolysis at 1 h, 64 ug/ml in series [4] was 102%.

The values above are taken from ChEMBL document CHEMBL5150076, “Discovery of Novel Orally Bioavailable Triazoles with Potent and Broad-Spectrum Antifungal Activity In Vitro and In Vivo” (J Med Chem, 2022).
